Activity calls are given as the source filed them. No cut-off for these calls is given here.
What was measured:
NCI-H358 = experiment: Antiproliferative activity against human NCI-H358 cells harboring SOS1/KRAS G12C mutant measured after 24 hrs by AlamarBlue based 3-D proliferation assay; assay type: functional, cell-based
[1] = Inhibition of SOS1/KRAS G13D mutant protein-protein interaction in human DLD-1 cells assessed as ERK1/2 phosphorylation measured after 1 hr by homogeneous time-resolved fluorescence (HTRF) method; assay type: cell-based; settings: DLD-1, 1 h
SOS1-KRAS = SOS1-KRAS (Homo sapiens, UniProt Q07889); experiment: Inhibition of human recombinant SOS1 (residue 564-1049)/KRAS G12C mutant protein-protein interaction at incubated for 25 degC for 60 mins by homogeneous time-resolved fluorescence (HTRF) method
[2] = Half life in ICR mouse at 10 mg/kg, po by LC-MS/MS analysis; assay type: ADME, organism-based; settings: in vivo
[3] = AUC in ICR mouse at 10 mg/kg, po by LC-MS/MS analysis; assay type: ADME, organism-based; design: dose 10 mg/kg, route po; settings: in vivo
[4] = Tmax in ICR mouse at 10 mg/kg, po by LC-MS/MS analysis; assay type: ADME, organism-based; settings: in vivo
[5] = Elimination rate constant in ICR mouse at 10 mg/kg, po by LC-MS/MS analysis; assay type: ADME, organism-based; settings: in vivo
[6] = MRT in ICR mouse at 10 mg/kg, po by LC-MS/MS analysis; assay type: ADME, organism-based; settings: in vivo
[7] = Cmax in ICR mouse at 10 mg/kg, po by LC-MS/MS analysis; assay type: ADME, organism-based; design: dose 10 mg/kg, route po; settings: in vivo
[8] = Metabolic stability in mouse liver microsomes assessed as half life in presence of NADPH by LC-MS/MS analysis; assay type: ADME, Microsome
[9] = Tmax in ICR mouse at 20 mg/kg, po by LC-MS/MS analysis; assay type: ADME, organism-based; settings: in vivo
[10] = Toxicity in BALB/c mouse xenografted with human MIA PaCa-2 cells harboring KRAS G12C mutant assessed as mortality at 50 mg/kg, po once a day measured for 16 days; assay type: organism-based; settings: in vivo, 384 h, time 16 day
[11] = Toxicity in BALB/c mouse xenografted with human MIA PaCa-2 cells harboring KRAS G12C mutant assessed as change in body weight at 50 mg/kg, po once a day measured for 16 days; assay type: organism-based; settings: in vivo, 384 h, time 16 day
[12] = Half life in ICR mouse at 20 mg/kg, po by LC-MS/MS analysis; assay type: ADME, organism-based; settings: in vivo; for half-life: ICR
MIA PaCa-2 [13] = experiment: In vivo antitumor activity against human MIA PaCa-2 cells harboring KRAS G12C mutant xenografted in BALB/c mouse assessed as reduction in tumor volume at 50 mg/kg, po once a day measured for 16 days relative to BI-3406; assay type: functional; design: scale not given: the % may be the effect or the level left; settings: time 16 day
MIA PaCa-2 [14] = experiment: Antiproliferative activity against human MIA PaCa-2 cells assessed as cell viability measured after 72 hrs by MTT assay; assay type: functional, cell-based; settings: MIA PaCa-2, 72 h
[15] = AUC in ICR mouse at 20 mg/kg, po by LC-MS/MS analysis; assay type: ADME, organism-based; design: dose 20 mg/kg, route po; settings: in vivo
[16] = Metabolic stability in rat liver microsomes assessed as half life in presence of NADPH by LC-MS/MS analysis; assay type: ADME, Microsome
[17] = Metabolic stability in mouse liver microsomes assessed as intrinsic clearance in presence of NADPH measured upto 60 mins by LC-MS/MS analysis; assay type: ADME, Microsome; settings: read-out: CLH
[18] = MRT in ICR mouse at 20 mg/kg, po by LC-MS/MS analysis; assay type: ADME, organism-based; settings: in vivo
[19] = Metabolic stability in rat liver microsomes assessed as intrinsic clearance in presence of NADPH measured upto 60 mins by LC-MS/MS analysis; assay type: ADME, Microsome; settings: read-out: CLH
MIA PaCa-2 [20] = experiment: In vivo antitumor activity against human MIA PaCa-2 cells harboring KRAS G12C mutant xenografted in BALB/c mouse assessed as reduction in tumor volume at 50 mg/kg, po once a day measured for 16 days relative to control; assay type: functional; design: scale not given: the % may be the effect or the level left; settings: time 16 day
[21] = Cmax in ICR mouse at 20 mg/kg, po by LC-MS/MS analysis; assay type: ADME, organism-based; design: dose 20 mg/kg, route po; settings: in vivo
[22] = Elimination rate constant in ICR mouse at 20 mg/kg, po by LC-MS/MS analysis; assay type: ADME, organism-based; settings: in vivo; for k el: ICR
MIA PaCa-2 [23] = experiment: In vivo antitumor activity against human MIA PaCa-2 cells harboring KRAS G12C mutant xenografted in BALB/c mouse assessed as tumor growth inhibition at 50 mg/kg, po once a day measured for 16 days relative to control; assay type: functional; settings: MIA PaCa-2, 384 h, time 16 day, read-out: TGI

Sequence of SOS1-KRAS (Q07889 whole entry, looked up, stated change not applied): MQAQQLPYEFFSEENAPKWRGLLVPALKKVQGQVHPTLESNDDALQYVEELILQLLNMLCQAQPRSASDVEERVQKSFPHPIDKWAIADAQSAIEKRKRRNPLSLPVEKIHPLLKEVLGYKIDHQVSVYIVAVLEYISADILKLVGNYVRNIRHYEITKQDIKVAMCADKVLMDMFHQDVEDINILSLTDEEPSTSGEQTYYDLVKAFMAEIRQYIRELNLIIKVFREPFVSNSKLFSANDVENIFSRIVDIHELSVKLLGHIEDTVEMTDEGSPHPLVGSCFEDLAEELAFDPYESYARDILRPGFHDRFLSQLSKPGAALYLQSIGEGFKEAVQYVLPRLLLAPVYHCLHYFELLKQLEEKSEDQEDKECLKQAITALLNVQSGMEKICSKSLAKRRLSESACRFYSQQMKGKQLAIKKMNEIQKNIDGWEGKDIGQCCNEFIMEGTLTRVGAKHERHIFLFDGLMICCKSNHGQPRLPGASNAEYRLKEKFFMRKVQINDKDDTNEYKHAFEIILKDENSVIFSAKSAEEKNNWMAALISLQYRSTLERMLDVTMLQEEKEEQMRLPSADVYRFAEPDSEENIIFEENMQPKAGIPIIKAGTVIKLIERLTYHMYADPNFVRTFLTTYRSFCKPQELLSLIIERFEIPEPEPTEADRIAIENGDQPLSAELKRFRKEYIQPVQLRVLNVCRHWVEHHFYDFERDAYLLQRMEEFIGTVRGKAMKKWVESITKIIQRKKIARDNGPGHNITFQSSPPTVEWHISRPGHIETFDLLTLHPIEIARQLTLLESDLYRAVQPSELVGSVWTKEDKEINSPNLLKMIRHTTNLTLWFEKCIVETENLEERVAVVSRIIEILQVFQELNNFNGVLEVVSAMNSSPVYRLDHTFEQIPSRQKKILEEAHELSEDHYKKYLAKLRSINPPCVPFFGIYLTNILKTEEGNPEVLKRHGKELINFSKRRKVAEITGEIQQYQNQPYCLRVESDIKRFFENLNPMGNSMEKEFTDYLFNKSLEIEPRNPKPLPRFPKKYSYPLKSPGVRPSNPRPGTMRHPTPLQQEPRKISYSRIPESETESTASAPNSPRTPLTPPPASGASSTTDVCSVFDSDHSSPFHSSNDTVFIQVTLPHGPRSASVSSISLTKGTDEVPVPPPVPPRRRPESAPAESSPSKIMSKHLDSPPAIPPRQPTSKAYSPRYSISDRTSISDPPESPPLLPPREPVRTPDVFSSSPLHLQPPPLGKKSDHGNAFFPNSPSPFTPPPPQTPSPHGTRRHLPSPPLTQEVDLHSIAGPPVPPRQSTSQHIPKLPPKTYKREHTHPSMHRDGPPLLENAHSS

| Compound | Activity (NCI-H358) | IC50 [1] [nM] | IC50 (SOS1-KRAS) [nM] | half-life [2] [h] | AUC [3] [ng·h/mL] | Tmax [4] [h] | k el [5] [s⁻¹] | MRT [6] [h] | Cmax [7] [ng/mL] | half-life [8] [h] | Tmax [9] [h] | Activity [10] | Activity [11] | AUC [15] [ng·h/mL] | half-life [16] [h] | MRT [18] [h] | Activity (MIA PaCa-2 [20]) [%] | Cmax [21] [ng/mL] | half-life [12] [h] | k el [22] [s⁻¹] | other results |
| --- | --- | --- | --- | --- | --- | --- | --- | --- | --- | --- | --- | --- | --- | --- | --- | --- | --- | --- | --- | --- | --- |
| CC(=O)N1CCN2c3cc4c(N[C@H](C)c5cc(N)cc(C(F)(F)F)c5)nc(C)nc4cc3OC[C@H]2C1 | Active | 4.7 | 4.3 | 1.49 | 53.5 | 1 | 0.000142 | 10.1 | 8.89 |  |  |  |  |  |  |  |  |  |  |  |  |
| CC(=O)N1CCN2c3cc4c(N[C@H](C)c5cccc(C(F)(F)CO)c5F)nc(C)nc4cc3OC[C@H]2C1 | Active | 1.4 | 2.7 |  |  |  |  |  |  |  |  |  |  |  |  |  |  |  |  |  |  |
| Cc1nc(N[C@H](C)c2cccc(C(F)F)c2F)c2cc3c(cc2n1)OC[C@H]1CN(C(=O)[C@H]2CCOC2)CCN31 |  | 5 |  |  |  |  |  |  |  | 0.437 | 3.67 | Non-Toxic | Non-Toxic | 9900 | 1.12 | 4.19 | 49 | 1550 |  |  | t1/2 ([12]; po, 20 mg/kg): 11.4 h; Activity (MIA PaCa-2 [13]): 71%; IC50 (MIA PaCa-2 [14]): 178 nM; CLint scaled [17]: 209 mL/min/kg; CLint scaled [19]: 37.2 mL/min/kg; Kel ([22]; po, 20 mg/kg): 0.25 h⁻¹ |
| CC(=O)N1CCN2c3cc4c(N[C@H](C)c5cccc(C(F)F)c5F)nc(C)nc4cc3OC[C@H]2C1 | Active | 2.4 | 6.3 | 1.87 | 148 | 0.33 | 0.000103 | 1.9 | 63.4 |  | 0.25 |  | Non-Toxic | 601 |  | 1.93 |  | 270 | 2.14 | 0.000119 | inhibition in vivo at 50 mg/kg (MIA PaCa-2 [23]): 42% |
| Cc1nc(N[C@H](C)c2cccc(C(F)F)c2F)c2cc3c(cc2n1)OC[C@H]1CN(C(=O)[C@@H]2C[C@H]2F)CCN31 |  | 6 |  |  |  |  |  |  |  |  | 5.67 | Non-Toxic | Non-Toxic | 4010 |  | 4.08 | 49 | 651 | 6.67 | 2.78e-05 |  |
| COc1cc2nc(C)nc(N[C@H](C)c3cc(N)cc(C(F)(F)F)c3)c2cc1O[C@H]1CCOC1 |  | 30.7 |  | 1.3 | 550 | 0.5 | 0.000147 | 1.7 | 241 | 0.18 | 0.9 | Non-Toxic | Non-Toxic | 4680 | 0.602 | 2.98 | 42 | 1050 | 4.48 | 5.83e-05 | CLint scaled [17]: 504 mL/min/kg; CLint scaled [19]: 69.5 mL/min/kg |

— ChEMBL document CHEMBL5236589, “Design and Structural Optimization of Orally Bioavailable SOS1 Inhibitors for the Treatment of KRAS-Driven Carcinoma” (J Med Chem, 2022)
